According to patent US6004938A, “Inositolglycans having insulin-like action” (Hoescht Aktiengesellschaft, priority 1996, dated 1999):

What was measured:
rat fat cells [1] = test: Glucose transport in isolated rat fat cells (insulin-like activity); assay type: cell-based, rat (Wistar); conditions: for Emax: 0.25 h, read-out: Glucose transport % Insmax; for EC50: read-out: Glucose transport EC50
Experimental: (§1) This example provides exemplary methods for determining insulin-like activity. The biological activity of the compounds of the formula I according to the invention is determined with the aid of isolated fat cells from the rat.
(§2) The preparation of fat cells from the rat was carried out as follows: White fatty tissue of the epididymis (Wistar rat, 160-180 g, no food restriction) is digested with collagenase and the resulting isolated fat cells are separated off by means of filtration of undigested tissue and washed by flotation several times using Krebs-Ringer-Henseleit buffer (KRH buffer).
[…] After addition of 15 μl of 2-[^3 H]-deoxyglucose (0.3 mM, 0.2 μCi), the incubation is continued at room temperature. After specified times (0-20 min), 100 μl of the test batch are removed and transferred to a reaction vessel (contents 400 μl), in which 250 μl of dinonyl phthalate have been initially introduced. After centrifugation (15,000×g, 1 min), the cells are separated off from the oily layer of the incubation medium underneath the oily layer by cutting the tube at the level of the oily layer and transferring to a scintillation vessel. After addition of 5 ml of water-soluble scintillation fluid, the radioactivity is determined. This total cell-associated radioactivity is corrected for [^3 H]-deoxyglucose which has passively diffused into the cells and is included in the cell interstices by subtraction of a control value (incubation in the presence of the glucose transport inhibitor cytochalasin B). The initial (stimulated) glucose transport rate is linear up to 15 min. The maximum stimulation factor--this is the ratio of the incubation result with insulin to the incubation result without insulin--is set at 100%.
The terms "%Insmax " and "EC50 " are as defined under A) lipogenesis.

rat fat cells [2] = test: Lipogenesis in isolated rat fat cells (insulin-like activity); assay type: cell-based, rat (Wistar); conditions: 1.5 h; for EC50: read-out: Lipogenesis EC50; for Emax: read-out: Lipogenesis % Insmax
Experimental: as §1, §2
This test determines the insulin-stimulable conversion of glucose into toluene-soluble products (triglycerides, phospholipids, fatty acids), which promotes glucose transport and triglyceride (glycerol-3-P synthesis, esterification)/phospholipid/fatty acid synthesis including the insulin signal transmission cascade. At a glucose concentration of 2.5 mM in the test, the esterification (and not the glycerol-3-P synthesis including glucose transport) is rate-determining for the stimulation of lipogenesis.
200 μl (3×10^5 cells/ml) of rat fat cells in KRH buffer are incubated at 37° C. for 90 min with 100 μl of D-[3-^3 H] glucose (25 mM, 0.4 μCi) in the presence or absence of insulin (10 ng/ml) or compound of the formula I according to the invention (final volume 1 ml). By addition of a toluene-soluble scintillation cocktail (10 ml), the cells are disrupted and the lipids are separated off from water-soluble products and the incubation medium. After phase separation, the radioactivity incorporated in lipid products is determined directly without removal of the aqueous phase by scintillation measurement ([^3 H]lipid [dpm×10^-3 ]). A control value (incubation under identical conditions but without cells) is subtracted from this radioactivity. The lipogenesis rate is linear up to 120 min. The maximum stimulation factor--this is the ratio of the incubation result with insulin to the incubation results without insulin--is set at 100%. The percentage data under "%Insmax " are parts of the maximum stimulation factor defined in this way. The term EC50 indicates the concentration of the compound of the formula I at which 50% of the maximum stimulation to be achieved by the respective compound of the formula I is to be observed.

[3] = part of maximum stimulation factor of insulin (set at 100%), rat fat cells, 15 min, 37° C., 2-[3H]-deoxyglucose
[4] = concentration at 50% of the maximum stimulation achieved by the respective compound, rat fat cells, 2-[3H]-deoxyglucose
[5] = concentration at 50% of the maximum stimulation achieved by the respective compound, rat fat cells, 90 min, 37° C.
[6] = part of maximum stimulation factor of insulin (set at 100%), rat fat cells, 90 min, 37° C., D-[3-3H]glucose

Compound | Emax (rat fat cells [1]; [3]) [%] | EC50 (rat fat cells [1]; [4]) [µM] | EC50 (rat fat cells [2]; [5]) [µM] | Emax (rat fat cells [2]; [6]) [%] | Emax (rat fat cells [1]; Rattus norvegicus) [%] | EC50 (rat fat cells [1]; Rattus norvegicus) [µM] | Emax (rat fat cells [2]; Rattus norvegicus) [%] | EC50 (rat fat cells [2]; Rattus norvegicus) [µM]
N[C@H]1[C@H](O[C@H]2[C@H](O)[C@@H](O)[C@H](O)[C@@H]3OP(=O)(O)O[C@H]23)O[C@H](CO)[C@@H](O[C@H]2O[C@H](CO[C@H]3O[C@H](CO)[C@@H](O)[C@H](O)[C@@H]3O[C@H]3O[C@H](CO[PH](=O)O)[C@@H](O)[C@H](O)[C@@H]3O[C@H]3O[C@H](CO)[C@@H](O)[C@H](O)[C@@H]3O)[C@@H](O)[C@H](O)[C@@H]2O)[C@@H]1O [A, HO-PO(H)O-6Manα1(Manα1-2)-2Manα1-6Manα1-4GluNβ1-6(L)inositol-1,2-(cyclic)-phosphate] | 28 | 8 | 7 | 59 | – | – | – | –
N[C@H]1[C@H](O[C@@H]2[C@@H](O)[C@H](O)[C@@H](O)[C@H]3OP(=O)(O)O[C@H]32)O[C@H](CO)[C@@H](O[C@H]2O[C@H](CO[C@H]3O[C@H](CO)[C@@H](O)[C@H](O)[C@@H]3O[C@H]3O[C@H](CO[PH](=O)O)[C@@H](O)[C@H](O)[C@@H]3O[C@H]3O[C@H](CO)[C@@H](O)[C@H](O)[C@@H]3O)[C@@H](O)[C@H](O)[C@@H]2O)[C@@H]1O [B, HO-PO(H)O-6Manα1(Manα1-2)-2Manα1-6Manα1-4GluNβ1-6(D)inositol-1,2-(cyclic)-phosphate] | 41 | 8.1 | 8.2 | 77 | – | – | – | –
N[C@H]1[C@H](O[C@@H]2[C@@H](O)[C@H](O)[C@@H](O)[C@H]3OP(O)(=S)O[C@H]32)O[C@H](CO)[C@@H](O[C@H]2O[C@H](CO[C@H]3O[C@H](CO)[C@@H](O)[C@H](O)[C@@H]3O[C@H]3O[C@H](CO[PH](=O)O)[C@@H](O)[C@H](O)[C@@H]3O[C@H]3O[C@H](CO)[C@@H](O)[C@H](O)[C@@H]3O)[C@@H](O)[C@H](O)[C@@H]2O)[C@@H]1O (stereo partly drawn) [C, HO-PO(H)O-6Manα1(Manα1-2)-2Manα1-6Manα1-4GluNβ1-6(D)inositol-1,2-(cyclic)-thiophosphate] | – | – | – | – | 29 | 10 | 64 | 7
N[C@H]1[C@H](O[C@H]2[C@H](O)[C@@H](O)[C@H](OP(=O)(O)O)[C@H](O)[C@@H]2O)O[C@H](CO)[C@@H](O)[C@@H]1O[C@H]1O[C@H](CO[C@H]2O[C@H](CO)[C@@H](O)[C@H](O)[C@@H]2O[C@H]2O[C@H](CO[PH](=O)O)[C@@H](O)[C@H](O)[C@@H]2O[C@H]2O[C@H](CO)[C@@H](O)[C@H](O)[C@@H]2O)[C@@H](O)[C@H](O)[C@@H]1O [D, HO-PO(H)O-6Manα1(Manα1-2)-2Manα1-6Manα1-3GluNβ1-6(L)inositol-3-phosphate] | 18 | 18 | 20 | 33 | – | – | – | –
NCCOP(=O)(O)OC[C@H]1O[C@H](OC[C@H]2O[C@H](O[C@H]3[C@H](O)[C@@H](N)[C@H](O[C@@H]4[C@@H](O)[C@H](O)[C@@H](O)[C@H]5OP(=O)(O)O[C@H]54)O[C@@H]3CO)[C@@H](OP(=O)(O)OCCN)[C@@H](O)[C@@H]2O)[C@@H](O[C@H]2O[C@H](CO[PH](=O)O)[C@@H](O)[C@H](O)[C@@H]2O[C@H]2O[C@H](CO)[C@@H](O)[C@H](O)[C@@H]2O)[C@@H](O)[C@@H]1O [E, HO-PO(H)O-6Manα1(Manα1-2)-2Manα1(6-EtNP)-6Manα1(2-EtNP)-4GluNβ1-6(D)inositol-1,2-(cyclic)-phosphate] | 34 | 30 | 60 | 48 | – | – | – | –
N[C@H]1[C@@H](O[C@H]2[C@H](O)[C@@H](O)[C@H](O)[C@@H]3OP(=O)(O)O[C@H]23)O[C@H](CO)[C@@H](O[C@H]2O[C@H](CO[PH](=O)O)[C@@H](O)[C@H](O)[C@@H]2O)[C@@H]1O [G, HO-PO(H)O-6Manα1-4GluNα1-6(L)inositol-1,2-(cyclic)-phosphate] | 9 | 15 | 15 | 25 | – | – | – | –
N[C@H]1[C@@H](O[C@H]2[C@H](O)[C@@H](O)[C@H](O)[C@H](O)[C@@H]2O)O[C@H](CO)[C@@H](O[C@H]2O[C@H](CO[PH](=O)O)[C@@H](O)[C@H](O)[C@@H]2O)[C@@H]1O [H, HO-PO(H)O-6Manα1-4GluNα1-6(L)inositol] | 2 | 10 | 25 | 15 | – | – | – | –
N[C@H]1[C@H](O[C@@H]2[C@@H](O)[C@H](O)[C@@H](O)[C@H]3OP(=O)(O)O[C@H]32)O[C@H](CO)[C@@H](O[C@H]2O[C@H](CO[C@H]3O[C@H](CO[PH](=O)O)[C@@H](O)[C@H](O)[C@@H]3O[C@H]3O[C@H](CO[PH](=O)O)[C@@H](O)[C@H](O)[C@@H]3O[C@H]3O[C@H](CO)[C@@H](O)[C@H](O)[C@@H]3O)[C@@H](O)[C@H](O)[C@@H]2O)[C@@H]1O [M, HO-PO(H)O-6Manα1(Manα1-2)-2Manα1(6-PO(H)OH)-6Manα1-4GluNβ1-6(D)-inositol-1,2-(cyclic)-phosphate] | 39 | 6 | 7 | 90 | – | – | – | –
N[C@H]1[C@H](O[C@@H]2[C@@H](O)[C@H](O)[C@@H](O)[C@H]3OP(=O)(O)O[C@H]32)O[C@H](CO)[C@@H](O[C@H]2O[C@H](CO[C@H]3O[C@H](COS(=O)(=O)O)[C@@H](O)[C@H](O)[C@@H]3O[C@H]3O[C@H](COS(=O)(=O)O)[C@@H](O)[C@H](O)[C@@H]3O[C@H]3O[C@H](CO)[C@@H](O)[C@H](O)[C@@H]3O)[C@@H](O)[C@H](O)[C@@H]2O)[C@@H]1O [N, HO-SO2 -O-6Manα1(Manα1-2)-2Manα1(6-HSO3)-6Manα1-4-GluNβ1-6(D)-inositol-1,2-(cyclic)-phosphate] | 52 | 5 | 3 | 96 | – | – | – | –
O=[PH](O)OC[C@H]1O[C@H](OC[C@H]2O[C@H](OC[C@H]3O[C@H](OC[C@H]4O[C@H](OC[C@H]5O[C@H](O[C@H]6[C@H](O)[C@@H](O)[C@H](OP(=O)(O)O)[C@H](O)[C@@H]6O)[C@@H](O)[C@@H](O)[C@@H]5O)[C@@H](O)[C@@H](O)[C@@H]4O)[C@@H](O)[C@@H](O)[C@@H]3O)[C@@H](O)[C@@H](O)[C@@H]2O)[C@@H](O)[C@@H](O)[C@@H]1O [O, HO-PO(H)O-6-Manα1-6Manα1-6Manα-1-6Manα1-6Manα1-6(L)inositol-3-phosphate] | 5 | 50 | 20 | 10 | – | – | – | –
N[C@H]1[C@H](O[C@H]2[C@H](O)[C@@H](O)[C@H](OP(=O)(O)O)[C@H](O)[C@@H]2O)O[C@H](CO)[C@@H](O)[C@@H]1O[C@H]1O[C@H](CO[C@H]2O[C@H](CO[PH](=O)O)[C@@H](O)[C@H](O)[C@@H]2O[C@H]2O[C@H](CO[PH](=O)O)[C@@H](O)[C@H](O)[C@@H]2O)[C@@H](O)[C@H](O)[C@@H]1O [Q, HO-PO(H)O-6Manα1-2Manα1(6-PO(H)OH)-6-Manα1-3GluNβ1-6(L)inositol-3-phosphate] | 18 | 30 | 40 | 44 | – | – | – | –
NC(=O)OC[C@H]1O[C@H](O[C@@H]2[C@@H](OC[C@H]3O[C@H](O[C@@H]4[C@@H](N)[C@H](O[C@H]5[C@H](O)[C@@H](O)[C@H](OP(=O)(O)O)[C@H](O)[C@@H]5O)O[C@H](CO)[C@H]4O)[C@@H](O)[C@@H](O)[C@@H]3O)O[C@H](COC(N)=O)[C@@H](O)[C@@H]2O)[C@@H](O[C@H]2O[C@H](CO)[C@@H](O)[C@H](O)[C@@H]2O)[C@@H](O)[C@@H]1O [R, H2 N-CO-O-6Manα1(Manα1-2)-2Manα1(6-CO-NH2)-6Manα1-3GluNβ1-6(L)inositol-3-phosphate] | 19 | 10 | 15 | 48 | – | – | – | –
